ChEMBL document CHEMBL4346705, “(±)-trans-Dihydronarciclasine and (±)-trans-dihydrolycoricidine analogues modified in their ring A: Evaluation of their anticancer activity and a SAR study” (2019)

How the values were obtained:
Type in all cases: functional
BT-549 = assay: Cytotoxicity against human BT549 cells assessed as growth inhibition after 48 hrs by sulforhodamine B assay; conditions: BT-549, 48 h
RPMI-8226 = assay: Cytotoxicity against human RPMI8226 cells assessed as growth inhibition after 48 hrs by sulforhodamine B assay; conditions: RPMI-8226, 48 h
RXF 393 = assay: Cytotoxicity against human RXF393 cells assessed as growth inhibition after 48 hrs by sulforhodamine B assay; conditions: RXF 393, 48 h
A549 = assay: Cytotoxicity against human A549 cells assessed as growth inhibition after 48 hrs by sulforhodamine B assay; conditions: A549, 48 h; for CC50: read-out: LC50 (the source's name)
IGROV-1 = assay: Cytotoxicity against human IGROV1 cells assessed as growth inhibition after 48 hrs by sulforhodamine B assay; conditions: IGROV-1, 48 h
HCT-116 = assay: Cytotoxicity against human HCT116 cells assessed as growth inhibition after 48 hrs by sulforhodamine B assay; conditions: HCT-116, 48 h
U-251 = assay: Cytotoxicity against human U251 cells assessed as growth inhibition after 48 hrs by sulforhodamine B assay; conditions: U-251, 48 h
SW-620 = assay: Cytotoxicity against human SW620 cells assessed as growth inhibition after 48 hrs by sulforhodamine B assay; conditions: SW-620, 48 h
SF-295 = assay: Cytotoxicity against human SF295 cells assessed as growth inhibition after 48 hrs by sulforhodamine B assay; conditions: SF-295, 48 h; for CC50: read-out: LC50 (the source's name)
SN12C = assay: Cytotoxicity against human SN12C cells assessed as growth inhibition after 48 hrs by sulforhodamine B assay; conditions: for CC50: read-out: LC50 (the source's name)
NCI-H226 = assay: Cytotoxicity against human NCI-H226 cells assessed as growth inhibition after 48 hrs by sulforhodamine B assay; conditions: NCI-H226, 48 h
PC-3 = assay: Cytotoxicity against human PC3 cells assessed as growth inhibition after 48 hrs by sulforhodamine B assay; conditions: PC-3, 48 h
SK-MEL-28 = assay: Cytotoxicity against human SK-MEL-28 cells assessed as growth inhibition after 48 hrs by sulforhodamine B assay; conditions: SK-MEL-28, 48 h
SK-MEL-5 = assay: Cytotoxicity against human SK-MEL-5 cells assessed as growth inhibition after 48 hrs by sulforhodamine B assay; conditions: SK-MEL-5, 48 h; for CC50: read-out: LC50 (the source's name)
M14 = assay: Cytotoxicity against human M14 cells assessed as growth inhibition after 48 hrs by sulforhodamine B assay; conditions: M14, 48 h; for CC50: read-out: LC50 (the source's name)
HT-29 = assay: Cytotoxicity against human HT-29 cells assessed as growth inhibition after 48 hrs by sulforhodamine B assay; conditions: HT-29, 48 h
HOP-62 = assay: Cytotoxicity against human HOP62 cells assessed as growth inhibition after 48 hrs by sulforhodamine B assay; conditions: HOP-62, 48 h; for CC50: read-out: LC50 (the source's name)
K562 = assay: Cytotoxicity against human K562 cells assessed as growth inhibition after 48 hrs by sulforhodamine B assay; conditions: K562, 48 h; for CC50: read-out: LC50 (the source's name)
HCC 2998 = assay: Cytotoxicity against human HCC2998 cells assessed as growth inhibition after 48 hrs by sulforhodamine B assay; conditions: HCC 2998, 48 h
MDA-MB-231 = assay: Cytotoxicity against human MDA-MB-231 cells assessed as growth inhibition after 48 hrs by sulforhodamine B assay; conditions: MDA-MB-231, 48 h
UACC-257 = assay: Cytotoxicity against human UACC257 cells assessed as growth inhibition after 48 hrs by sulforhodamine B assay; conditions: UACC-257, 48 h
SNB-19 = assay: Cytotoxicity against human SNB19 cells assessed as growth inhibition after 48 hrs by sulforhodamine B assay; conditions: SNB-19, 48 h
SR = assay: Cytotoxicity against human SR cells assessed as growth inhibition after 48 hrs by sulforhodamine B assay; conditions: for CC50: read-out: LC50 (the source's name)
MOLT-4 = assay: Cytotoxicity against human MOLT4 cells assessed as growth inhibition after 48 hrs by sulforhodamine B assay; conditions: MOLT-4, 48 h; for CC50: read-out: LC50 (the source's name)
786-0 = assay: Cytotoxicity against human 786-0 cells assessed as growth inhibition after 48 hrs by sulforhodamine B assay; conditions: 786-0, 48 h
MCF7 = assay: Cytotoxicity against human MCF7 cells assessed as growth inhibition after 48 hrs by sulforhodamine B assay; conditions: MCF7, 48 h
SF-539 = assay: Cytotoxicity against human SF539 cells assessed as growth inhibition after 48 hrs by sulforhodamine B assay; conditions: SF-539, 48 h
UACC-62 = assay: Cytotoxicity against human UACC62 cells assessed as growth inhibition after 48 hrs by sulforhodamine B assay; conditions: UACC-62, 48 h
Malme-3M = assay: Cytotoxicity against human MALME-3M cells assessed as growth inhibition after 48 hrs by sulforhodamine B assay
CAKI-1 = assay: Cytotoxicity against human Caki1 cells assessed as growth inhibition after 48 hrs by sulforhodamine B assay; conditions: CAKI-1, 48 h; for CC50: read-out: LC50 (the source's name)
SF-268 = assay: Cytotoxicity against human SF268 cells assessed as growth inhibition after 48 hrs by sulforhodamine B assay; conditions: SF-268, 48 h
NCI/ADR-RES = assay: Cytotoxicity against human NCI-ADR-RES cells assessed as growth inhibition after 48 hrs by sulforhodamine B assay; conditions: for CC50: read-out: LC50 (the source's name)

O=C1NC2C(CC(O)C(O)C2O)c2cc3c(c(O)c21)OCO3 (racemic)
GI50 (BT-549): 178 nM | TGI (BT-549): 820 nM | GI50 (RPMI-8226): 229 nM | TGI (RPMI-8226): 630 nM | GI50 (RXF 393): 118 nM | TGI (RXF 393): 510 nM | GI50 (A549): 139 nM | TGI (A549): 1160 nM | CC50 (A549): > 100000 nM | GI50 (IGROV-1): 163 nM | TGI (IGROV-1): 1110 nM | GI50 (HCT-116): 40.4 nM | TGI (HCT-116): 1130 nM | GI50 (U-251): 45.2 nM | TGI (U-251): 1010 nM | GI50 (SW-620): 54.5 nM | TGI (SW-620): 810 nM | GI50 (SF-295): 115 nM | TGI (SF-295): 770 nM | CC50 (SF-295): > 100000 nM | GI50 (SN12C): 69.3 nM | TGI (SN12C): 800 nM | CC50 (SN12C): > 100000 nM | GI50 (NCI-H226): 61.7 nM | TGI (NCI-H226): 590 nM | GI50 (PC-3): 164 nM | TGI (PC-3): 850 nM | GI50 (SK-MEL-28): 62.9 nM | TGI (SK-MEL-28): 480 nM | GI50 (SK-MEL-5): 71.9 nM | TGI (SK-MEL-5): 360 nM | CC50 (SK-MEL-5): 2220 nM | GI50 (M14): 52.5 nM | TGI (M14): 220 nM | CC50 (M14): 700 nM | GI50 (HT-29): 89.6 nM | TGI (HT-29): 1000 nM | GI50 (HOP-62): 56.8 nM | TGI (HOP-62): 420 nM | CC50 (HOP-62): > 100000 nM | GI50 (K562): 52.9 nM | TGI (K562): > 100000 nM | CC50 (K562): > 100000 nM | GI50 (HCC 2998): 57.2 nM | TGI (HCC 2998): 330 nM | GI50 (MDA-MB-231): 100 nM | TGI (MDA-MB-231): 880 nM | GI50 (UACC-257): 68.7 nM | TGI (UACC-257): 540 nM | GI50 (SNB-19): 46.6 nM | TGI (SNB-19): 690 nM | GI50 (SR): 52.2 nM | TGI (SR): > 100000 nM | CC50 (SR): > 100000 nM | GI50 (MOLT-4): 63.6 nM | CC50 (MOLT-4): > 100000 nM | GI50 (786-0): 151 nM | TGI (786-0): 1290 nM | GI50 (MCF7): 36.3 nM | TGI (MCF7): 1230 nM | GI50 (SF-539): 81.9 nM | TGI (SF-539): 460 nM | GI50 (UACC-62): 136 nM | TGI (UACC-62): 630 nM | GI50 (Malme-3M): 85.9 nM | TGI (Malme-3M): 390 nM | GI50 (CAKI-1): 91.3 nM | TGI (CAKI-1): 690 nM | CC50 (CAKI-1): > 100000 nM | GI50 (SF-268): 127 nM | TGI (SF-268): 800 nM | GI50 (NCI/ADR-RES): 178 nM | TGI (NCI/ADR-RES): 1560 nM | CC50 (NCI/ADR-RES): > 100000 nM

O=C1NC2C(CC(O)C(O)C2O)c2cc3c(c(O)c21)OCCO3 (racemic)
GI50 (BT-549): 260 nM | LC50 (concentration killing 50% of cells) (BT-549): > 100000 nM | TGI (BT-549): 870 nM | GI50 (RPMI-8226): 265 nM | LC50 (RPMI-8226): > 100000 nM | TGI (RPMI-8226): 1140 nM | GI50 (RXF 393): 179 nM | LC50 (50% lethal concentration) (RXF 393): 6300 nM | TGI (RXF 393): 710 nM | GI50 (A549): 355 nM | TGI (A549): 8530 nM | CC50 (A549): > 100000 nM | GI50 (IGROV-1): 343 nM | LC50 (IGROV-1): > 100000 nM | TGI (IGROV-1): 2680 nM | GI50 (HCT-116): 77.7 nM | LC50 (HCT-116): > 100000 nM | TGI (HCT-116): 1310 nM | GI50 (U-251): 243 nM | LC50 (U-251): > 100000 nM | TGI (U-251): 14500 nM | GI50 (SW-620): 222 nM | LC50 (SW-620): > 100000 nM | TGI (SW-620): 1220 nM | GI50 (SF-295): 357 nM | TGI (SF-295): 2640 nM | CC50 (SF-295): > 100000 nM | GI50 (SN12C): 141 nM | TGI (SN12C): 890 nM | CC50 (SN12C): > 100000 nM | GI50 (NCI-H226): 220 nM | LC50 (NCI-H226): 79800 nM | TGI (NCI-H226): 730 nM | GI50 (PC-3): 299 nM | LC50 (PC-3): > 100000 nM | TGI (PC-3): 2140 nM | GI50 (SK-MEL-28): 238 nM | LC50 (concentration killing 50% of cells) (SK-MEL-28): 29400 nM | TGI (SK-MEL-28): 890 nM | GI50 (SK-MEL-5): 181 nM | TGI (SK-MEL-5): 470 nM | CC50 (SK-MEL-5): 2220 nM | GI50 (M14): 230 nM | TGI (M14): 1190 nM | CC50 (M14): 5530 nM | GI50 (HT-29): 299 nM | LC50 (concentration causing 50% net cell kill) (HT-29): 96400 nM | TGI (HT-29): 1330 nM | GI50 (HOP-62): 255 nM | TGI (HOP-62): 910 nM | CC50 (HOP-62): 7270 nM | GI50 (K562): 126 nM | TGI (K562): 10700 nM | CC50 (K562): > 100000 nM | GI50 (HCC 2998): 222 nM | LC50 (concentration killing 50% of cells) (HCC 2998): 6310 nM | TGI (HCC 2998): 730 nM | GI50 (MDA-MB-231): 232 nM | LC50 (MDA-MB-231): 13200 nM | TGI (MDA-MB-231): 1160 nM | GI50 (UACC-257): 289 nM | LC50 (UACC-257): > 100000 nM | TGI (UACC-257): 1470 nM | GI50 (SNB-19): 155 nM | LC50 (SNB-19): > 100000 nM | TGI (SNB-19): 1030 nM | GI50 (SR): 314 nM | TGI (SR): 36800 nM | CC50 (SR): > 100000 nM | GI50 (MOLT-4): 179 nM | TGI (MOLT-4): 10100 nM | CC50 (MOLT-4): > 100000 nM | GI50 (786-0): 254 nM | LC50 (concentration killing 50% of cells) (786-0): > 100000 nM | TGI (786-0): 1610 nM | GI50 (MCF7): 103 nM | LC50 (MCF7): > 100000 nM | TGI (MCF7): 590 nM | GI50 (SF-539): 228 nM | LC50 (SF-539): 12700 nM | TGI (SF-539): 740 nM | GI50 (UACC-62): 261 nM | LC50 (UACC-62): 13000 nM | TGI (UACC-62): 1380 nM | GI50 (Malme-3M): 190 nM | LC50 (Malme-3M): 5200 nM | TGI (Malme-3M): 710 nM | GI50 (CAKI-1): 586 nM | TGI (CAKI-1): 5470 nM | CC50 (CAKI-1): > 100000 nM | GI50 (SF-268): 260 nM | LC50 (SF-268): > 100000 nM | TGI (SF-268): 1220 nM | GI50 (NCI/ADR-RES): 596 nM | TGI (NCI/ADR-RES): 5850 nM | CC50 (NCI/ADR-RES): > 100000 nM
